Test system: THP-1 cells and intestinal epithelial cells (CacoGoblet)
Assay: Monocyte-epithelial cell adhesion assay (THP-1 cells on CacoGoblet)
Assay type: cell-based, human
Details: inflamed mucosa (IL1 beta 10 ng/ml overnight), 24 hours treatment
Experimental: The CacoGoblet cells were pre-treated with 10 ng/ml of IL1 beta overnight. […] A parallel treatment was carried out with the reference molecule etacortilen (Dexamethasone Sodium Phosphate) at 0.15% in order to study the overcoming of the inflammatory state of the mucosa. […] Once the non-adherent cells had been removed, the residual surface fluorescence of the THP-1 cells was evaluated under a microscope. The anti-inflammatory activity of the various compounds at the intestinal level was assessed in a static assay using the reduction in the cellular adhesion of THP-1 on CacoGoblet as an endpoint parameter. • 2) Ability of Cranberries to Prevent Adhesion of E. Coli to Mucosa The CacoGoblet cells were treated overnight with IL-1beta, the pro-inflammatory cytokine, prior to the adhesion assay in order to create inflamed mucosa. The treated monolayers were then treated with the products for 24 hours. The marked THP-1 cells were added on top of the CacoGoblet in each well. The THP-1 cells were marked with the fluorescent dye chloromethylfluorescein diacetate (CMFDA; Invitrogen). After incubation, the monolayer was gently washed to remove the non-adherent THP-1 cells. The adherent cells marked with the fluorescent dye were viewed under a fluorescence microscope. […]

`C[C@@H]1C[C@H]2[C@@H]3CCC4=CC(=O)C=C[C@]4(C)[C@@]3(F)[C@@H](O)C[C@]2(C)[C@@]1(O)C(=O)COP(=O)(O)O` [etacortilen, Dexamethasone Sodium Phosphate] was tested, and the “adhesion of THP-1 cells” value was “significant decrease in the adhesion of THP-1 cells”.
